Data: patent publication US10925876B2, “Methods for using triazolo-pyrazinyl soluble guanylate cyclase activators in fibrotic disorders” (Merck Sharp & Dohme Corp., priority 2016, dated 2021)

Tests used:
sGC α1/β1 heterodimer = target: T1, sGC α1/β1 heterodimer (Homo sapiens, UniProt Q02108+Q02153); test: Cell-Based sGC Functional Assay (CASA Assay), cGMP generation in CHO-K1/sGC cells;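 further: reference Compound A is a published heme-dependent sGC activator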; details: maximum cGMP production of Compound A set to 100% activation, read-out: % Act. (percent activation relative to Compound A)
T1 construct: expressed in transfected cells
T1 sequence (Q02108 1-690): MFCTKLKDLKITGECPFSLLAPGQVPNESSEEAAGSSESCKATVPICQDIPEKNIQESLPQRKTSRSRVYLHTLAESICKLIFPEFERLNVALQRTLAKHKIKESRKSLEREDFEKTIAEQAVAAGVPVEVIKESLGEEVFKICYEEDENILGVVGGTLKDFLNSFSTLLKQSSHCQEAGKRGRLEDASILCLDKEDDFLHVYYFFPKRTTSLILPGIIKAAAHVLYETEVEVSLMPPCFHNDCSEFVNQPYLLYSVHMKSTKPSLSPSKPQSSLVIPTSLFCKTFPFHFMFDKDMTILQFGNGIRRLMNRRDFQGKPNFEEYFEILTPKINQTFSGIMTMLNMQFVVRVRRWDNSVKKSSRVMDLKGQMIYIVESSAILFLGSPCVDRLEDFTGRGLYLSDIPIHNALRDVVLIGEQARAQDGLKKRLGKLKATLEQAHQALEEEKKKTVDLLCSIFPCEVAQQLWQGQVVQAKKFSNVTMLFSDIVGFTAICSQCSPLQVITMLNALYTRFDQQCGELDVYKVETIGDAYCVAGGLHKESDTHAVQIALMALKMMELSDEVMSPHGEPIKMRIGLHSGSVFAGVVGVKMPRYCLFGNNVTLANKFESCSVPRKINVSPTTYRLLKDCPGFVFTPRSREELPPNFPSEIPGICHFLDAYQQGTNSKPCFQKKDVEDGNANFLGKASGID
T1 sequence (Q02153 1-619): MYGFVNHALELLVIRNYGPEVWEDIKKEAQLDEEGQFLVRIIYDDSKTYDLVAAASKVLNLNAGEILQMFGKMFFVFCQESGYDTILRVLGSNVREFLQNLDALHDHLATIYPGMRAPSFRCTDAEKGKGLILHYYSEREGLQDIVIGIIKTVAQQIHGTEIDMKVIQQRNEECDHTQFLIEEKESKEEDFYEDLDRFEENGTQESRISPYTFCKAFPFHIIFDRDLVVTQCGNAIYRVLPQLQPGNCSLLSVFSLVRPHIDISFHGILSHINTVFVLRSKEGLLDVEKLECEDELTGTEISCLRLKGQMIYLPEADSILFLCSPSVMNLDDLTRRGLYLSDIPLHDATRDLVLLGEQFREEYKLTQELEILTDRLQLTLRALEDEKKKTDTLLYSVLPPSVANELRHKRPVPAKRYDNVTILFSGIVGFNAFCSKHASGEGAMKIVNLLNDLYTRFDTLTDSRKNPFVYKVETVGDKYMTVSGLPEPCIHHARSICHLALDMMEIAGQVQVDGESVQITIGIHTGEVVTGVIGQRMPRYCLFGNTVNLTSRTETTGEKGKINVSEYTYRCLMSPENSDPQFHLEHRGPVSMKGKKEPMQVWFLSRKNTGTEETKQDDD
How it was run: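 CHO-K1 cells stably expressing human sGC α1/β1, 4×10^5/mL in EBSS with 5 mM MgCl2, 10 mM HEPES, 0.05% BSA, 0.5 mM IBMX, 2.5% DMSO; compounds 1 h at 37 °C ± 1 μM DETA-NO. cGMP by HTRF, expressed as % of reference Compound A maximum; IP and max fold induction from 4P fit.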

[1] = system: Spontaneously hypertensive rats (SHR); test: Acute Efficacy in Spontaneously Hypertensive Rats (SHR), telemetry blood pressure; type: in vivo, rat; details: single oral gavage
Source text: Spontaneously hypertensive rats (SHR, male, Charles River) were implanted with DSI TA11PA-C40 telemetry device (Data Sciences, Inc., St. Paul, Minn.) under isoflurane or ketamine/metomidine anesthesia. The telemetry unit catheter was inserted into the descending aorta via the femoral artery and the telemetry device was implanted subcutaneously in the left flank area. Animals were allowed to recover from surgery for 14 days before the start of any studies. Blood pressure, heart rate, and activity signals from conscious, freely moving rats were recorded continuously for 30 seconds every 10 minutes. On the day prior to administration of compound, a single oral dose of vehicle (10% transcutol/20% Cremophor/70% water) was administered to all animals to establish baseline control data. The blood pressure lowering efficacy of compound (PO) or vehicle was evaluated following a single oral gavage. Data were collected as hourly averages, and changes in blood pressure were calculated by subtracting control baseline data on an hourly basis. Animals were maintained on normal diet with a 12 hour light-dark cycle.
Maximum peak decreases of systolic blood pressure (SBP) in SHR at a particular P.O. dose (mpk milligrams per kilogram) for the following representative compounds are provided. Category A=SBP in SHRs <20 mmHg; Category B=SBP in SHRs 20-40 mmHg; Category C=SBP in SHRs >40 mmHg.

SMILES | Emax (sGC α1/β1 heterodimer) | Maximum peak decrease of systolic blood pressure (SBP) in SHR, Cat. ([1]; P.O. 1 mpk) | Maximum peak decrease of systolic blood pressure (SBP) in SHR, Cat. ([1]; P.O. 0.3 mpk) | Maximum peak decrease of systolic blood pressure (SBP) in SHR, Cat. ([1]; P.O. 3 mpk)
CC1(c2ccc(Cl)cc2)C(=O)Nc2nc(-c3cn4ncnc4cn3)nc(N)c21 (centres unmarked) [Example 94A, 2-([1,2,4]triazolo[1,5-a]pyrazin-6-yl)-4-amino-5-(4-chlorophenyl)-5-methyl-5H-pyrrolo[2,3-d]pyrimidin-6(7H)-one] | 138% | C (Category C=SBP in SHRs >40 mmHg) |  | 
CC1(c2ccc(F)c(F)c2)C(=O)Nc2nc(-c3cn4ncnc4c(CCCC(F)(F)F)n3)nc(O)c21 (centres unmarked) [Example 146B, 5-(3,4-difluorophenyl)-4-hydroxy-5-methyl-2-(8-(4,4,4-trifluorobutyl)-[1,2,4]triazolo[1,5-a]pyrazin-6-yl)-5H-pyrrolo[2,3-d]pyrimidin-6(7H)-one] | 154% |  | B (Category B=SBP in SHRs 20-40 mmHg) | 
CCCc1nc(-c2nc(O)c3c(n2)NC(=O)C3(C)c2ccc(Cl)c(F)c2)cn2ncnc12 (centres unmarked) [Example 166B, 5-(4-chloro-3-fluorophenyl)-4-hydroxy-5-methyl-2-(8-propyl-[1,2,4]triazolo[1,5-a]pyrazin-6-yl)-5H-pyrrolo[2,3-d]pyrimidin-6(7H)-one] | 117% |  |  | B (Category B=SBP in SHRs 20-40 mmHg)
CC1(c2ccccc2)C(=O)Nc2nc(-c3cn4ncnc4c(CCCC(F)(F)F)n3)nc(O)c21 (centres unmarked) [Example 143B, 4-hydroxy-5-methyl-5-phenyl-2-(8-(4,4,4-trifluorobutyl)-[1,2,4]triazolo[1,5-a]pyrazin-6-yl)-5H-pyrrolo[2,3-d]pyrimidin-6(7H)-one] | 114% | B (Category B=SBP in SHRs 20-40 mmHg) |  | 
NC(=O)c1nc(-c2cn3ncnc3c(CCCC(F)(F)F)n2)nc2c1C(c1ccc(C(F)(F)F)cn1)(C1CC1)C(=O)N2 (centres unmarked) [Example 178A] | 108% | B (Category B=SBP in SHRs 20-40 mmHg) |  | 
Nc1nc(-c2cn3ncnc3c(CCC(F)(F)C(F)(F)F)n2)nc2c1C(c1ccc(Cl)cn1)(C1CC1)C(=O)N2 (centres unmarked) [Example 7A, 4-amino-5-(5-chloropyridin-2-yl)-5-cyclopropyl-2-(8-(3,3,4,4,4-pentafluorobutyl)-[1,2,4]triazolo[1,5-a]pyrazin-6-yl)-5H-pyrrolo[2,3-d]pyrimidin-6(7H)-one] | 185% |  | B (Category B=SBP in SHRs 20-40 mmHg) | 
CCCCc1nc(-c2nc(O)c3c(n2)NC(=O)C3(C)c2ccc(F)c(F)c2)cn2ncnc12 (centres unmarked) [Example 158B, 2-(8-butyl-[1,2,4]triazolo[1,5-a]pyrazin-6-yl)-5-(3,4-difluorophenyl)-4-hydroxy-5-methyl-5H-pyrrolo[2,3-d]pyrimidin-6(7H)-one] | 232% |  | C (Category C=SBP in SHRs >40 mmHg) | 
CC1(c2ccc(O)cn2)C(=O)Nc2nc(-c3cn4ncnc4c(CCC(F)(F)C(F)(F)F)n3)nc(N)c21 (centres unmarked) [Example 110A, 4-Amino-5-(5-hydroxypyridin-2-yl)-5-methyl-2-(8-(3,3,4,4,4-pentafluorobutyl)-[1,2,4]triazolo[1,5-a]pyrazin-6-yl)-5,7-dihydro-6H-pyrrolo[2,3-d]pyrimidin-6-one] | 70% |  |  | B (Category B=SBP in SHRs 20-40 mmHg)
CC1(c2ccc(C3CC3)nc2)C(=O)Nc2nc(-c3cn4ncnc4c(CCC(F)(F)C(F)(F)F)n3)nc(N)c21 (centres unmarked) [Example 13B, 4-amino-5-(6-cyclopropylpyridin-3-yl)-5-methyl-2-(8-(3,3,4,4,4-pentafluorobutyl)-[1,2,4]triazolo[1,5-a]pyrazin-6-yl)-5H-pyrrolo[2,3-d]pyrimidin-6(7H)-one] | 109% | B (Category B=SBP in SHRs 20-40 mmHg) |  | 
Cc1nc2c(CCC(F)(F)C(F)(F)F)nc(-c3nc(N)c4c(n3)NC(=O)[C@@]4(C)c3ccc(F)cc3)cn2n1 [Example 88B, (S)-4-amino-5-(4-fluorophenyl)-5-methyl-2-(2-methyl-8-(3,3,4,4,4-pentafluorobutyl)-[1,2,4]triazolo[1,5-a]pyrazin-6-yl)-5H-pyrrolo[2,3-d)pyrimidin-6(7H)-one] | 137% | C (Category C=SBP in SHRs >40 mmHg) |  | 
CC1(c2ccc(F)cn2)C(=O)Nc2nc(-c3cn4ncnc4c(CCCC(F)(F)F)n3)nc(O)c21 (centres unmarked) [Example 136B, 5-(5-fluoropyridin-2-yl)-4-hydroxy-5-methyl-2-(8-(4,4,4-trifluorobutyl)-[1,2,4]triazolo[1,5-a]pyrazin-6-yl)-5H-pyrrolo[2,3-d]pyrimidin-6(7H)-one] | 69% |  |  | B (Category B=SBP in SHRs 20-40 mmHg)
Nc1nc(-c2cn3ncnc3c(CCCC(F)(F)F)n2)nc2c1C(c1ccc(F)cn1)(C1CC1)C(=O)N2 (centres unmarked) [Example 34A, 4-amino-5-cyclopropyl-5-(5-fluoropyridin-2-yl)-2-(8-(4,4,4-trifluorobutyl)-[1,2,4]triazolo[1,5-a]pyrazin-6-yl)-5H-pyrrolo[2,3-d]pyrimidin-6(7H)-one] | 235% |  | C (Category C=SBP in SHRs >40 mmHg) | 
CC1(c2ccc(Cl)c(F)c2)C(=O)Nc2nc(-c3cn4ncnc4c(CCCC(F)(F)F)n3)nc(O)c21 (centres unmarked) [Example 138B, 5-(4-chloro-3-fluorophenyl)-4-hydroxy-5-methyl-2-(8-(4,4,4-trifluorobutyl)-[1,2,4]triazolo[1,5-a]pyrazin-6-yl)-5H-pyrrolo[2,3-d]pyrimidin-6(7H)-one] | 164% | C (Category C=SBP in SHRs >40 mmHg) |  | 
C[C@@]1(c2ccc(F)cc2)C(=O)Nc2nc(-c3cn4ncnc4c(Cc4ccc(F)cc4)n3)nc(N)c21 [Example 85B, (S)-4-amino-2-(8-(4-fluorobenzyl)-[1,2,4]triazolo[1,5-a]pyrazin-6-yl)-5-(4-fluorophenyl)-5-methyl-5H-pyrrolo[2,3-d]pyrimidin-6(7H)-one] | 106% |  | C (Category C=SBP in SHRs >40 mmHg) | 
Nc1nc(-c2cn3ncnc3c(CCCC(F)(F)F)n2)nc2c1C(c1ccccn1)(C1CC1)C(=O)N2 (centres unmarked) [Example 115A, 4-amino-5-cyclopropyl-5-(pyridin-2-yl)-2-(8-(4,4,4-trifluorobutyl)-[1,2,4]triazolo[1,5-a]pyrazin-6-yl)-5H-pyrrolo[2,3-d]pyrimidin-6(7H)-one] | 118% | B (Category B=SBP in SHRs 20-40 mmHg) |  | 
CC1(c2ccccn2)C(=O)Nc2nc(-c3cn4ncnc4c(CCC(F)(F)C(F)(F)F)n3)nc(N)c21 (centres unmarked) [Example 11B, 4-amino-5-methyl-2-(8-(3,3,4,4,4-pentafluorobutyl)-[1,2,4]triazolo[1,5-a]pyrazin-6-yl)-5-(pyridin-2-yl)-5H-pyrrolo[2,3-d]pyrimidin-6(7H)-one] | 208% |  | B (Category B=SBP in SHRs 20-40 mmHg) | 
